The experiment has as its target T1, neutral/alkaline ceramidase derived from a mouse liver (Mus musculus, UniProt Q9JHE3).
T1 construct: the ceramidase purified from the mouse liver lacked the peptide of the N-terminal portion of the polypeptides encoded by the above-mentioned ORF; from tissue; host or cells: mouse liver (membrane fraction, purified by chromatography)
Nature of the experiment: Substrate specificity of the ceramidase (degradation of 14C-labeled sphingolipids, TLC). It counts as biochemical. The conditions noted are these: for Degradation Ratio (%): 5 milliunits ceramidase on 100 pmol 14C-labeled sphingolipid, 25 mM Tris-HCl pH 7.5, 1% sodium cholate, 37° C., 24 hours; for Substrate specificity (in words): as shown in Table 1. The procedure: Five milliunits of the ceramidase of the present invention is acted on 100 pmol of various kinds of sphingolipids, in which the fatty acid moiety is labeled with ^14C-radioactive isotope, in […] of 25 mM Tris-hydrochloric acid buffer, pH 7.5, containing 1% sodium cholate at 37° C. for 24 hours. The reaction mixture is developed on silica gel thin layer chromatography. Thereafter, the ^14C-labeled sphingolipids and the ^14C-labeled fatty acids generated by the enzymatic reaction are detected and quantified by Imaging Analyzer BAS1000 (manufactured by Fuji Photo Film). The degradation ratio is calculated from the obtained values.

T1 sequence (Q9JHE3 75-756): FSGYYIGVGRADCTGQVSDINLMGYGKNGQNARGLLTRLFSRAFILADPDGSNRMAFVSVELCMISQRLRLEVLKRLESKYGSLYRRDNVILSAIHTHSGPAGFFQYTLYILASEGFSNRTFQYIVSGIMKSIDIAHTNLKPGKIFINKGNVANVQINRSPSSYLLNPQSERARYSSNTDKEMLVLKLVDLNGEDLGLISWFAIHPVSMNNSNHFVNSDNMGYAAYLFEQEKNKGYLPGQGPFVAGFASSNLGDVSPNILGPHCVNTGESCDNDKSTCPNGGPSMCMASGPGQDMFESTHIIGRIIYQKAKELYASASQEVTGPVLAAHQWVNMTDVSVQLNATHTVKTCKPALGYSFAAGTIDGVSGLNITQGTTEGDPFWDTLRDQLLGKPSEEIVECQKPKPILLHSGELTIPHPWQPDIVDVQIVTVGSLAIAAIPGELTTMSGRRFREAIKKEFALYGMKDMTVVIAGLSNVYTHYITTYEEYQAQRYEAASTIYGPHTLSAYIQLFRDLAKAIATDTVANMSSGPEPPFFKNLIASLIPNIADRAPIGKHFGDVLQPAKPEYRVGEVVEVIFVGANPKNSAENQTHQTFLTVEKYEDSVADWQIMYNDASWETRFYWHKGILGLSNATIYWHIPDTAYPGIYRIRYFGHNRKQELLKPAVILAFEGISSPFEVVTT

For the compound `CCCCCCCCCCCCCCCCCC(=O)N[C@@H](CO)[C@H](O)[C@H](O)CCCCCCCCCCCCCC` [N-Stearoylphytosphingosine], the “Degradation Ratio (%)” value came to 2%.
Regarding `CCCCCCCCCCCCCCCC(=O)N[C@@H](CO)[C@H](O)[C@H](O)CCCCCCCCCCCCCC` [N-Palmitoylphytosphingosine], the “Degradation Ratio (%)” value stood at 5%.
With Galactosylceramide, the “Degradation Ratio (%)” value was 0% and the “Substrate specificity (in words)” value is reported as “not acting”.
For the compound `CCCCCCCCCCCCCCCC(=O)N[C@@H](CO)[C@H](O)CCCCCCCCCCCCCCC` [N-Palmitoylsphinganine], the “Degradation Ratio (%)” value is recorded as 59%.
Take Sulfatide: the “Degradation Ratio (%)” value turned out to be 0% and the “Substrate specificity (in words)” value is listed as “not acting”.
`CCCCCCCCCCCCC/C=C/[C@@H](O)[C@H](CO)NC(=O)CCCCCNc1ccc([N+](=O)[O-])c2nonc12` [6-((N-(7-nitrobenz-2-oxa-1,3-diazole-4-yl)amino)hexanoyl)sphingosine]: the “Degradation Ratio (%)” value is 2%.
As to `CCCCCCCCCCCCC/C=C/[C@@H](O)[C@H](CO)NC(=O)CCCCCCCCCCC` [N-Lauroylsphingosine], the “Degradation Ratio (%)” value worked out at 63%.
With `CCCCCCCCCCCCC/C=C/[C@@H](O)[C@H](CO)NC(=O)CCCCCCCCCCCCCCCCC` [N-Stearoylsphingosine], the “Degradation Ratio (%)” value is 83%.
Consider “Galb1-3GalNAcb1-4(NeuAca2-3)Galb1-4G1cb1-1′Cer [GM1a]”, for which the “Degradation Ratio (%)” value worked out at 0% and the “Substrate specificity (in words)” value was “not acting”.
Turning to Sphingomyelin, the “Degradation Ratio (%)” value stood at 0% and the “Substrate specificity (in words)” value was “not acting”.
With `CCCCCCCCCCCCC/C=C/[C@@H](O)[C@H](CO)NC(=O)CCCCCCCCCCCCCCC` [N-Palmitoylsphingosine], the “Degradation Ratio (%)” value came out at 93%.
As for `CCCCCCCCCCCCCCCCCC(=O)N[C@@H](CO)[C@H](O)CCCCCCCCCCCCCCC` [N-Stearoylsphinganine], the “Degradation Ratio (%)” value was 40%.
Still for that read-out and setting: next, `CCCCCCCCCCCCC/C=C/[C@@H](O)[C@H](CO)NC(=O)CCCCCCCCCCCNc1ccc([N+](=O)[O-])c2nonc12` [12-((N-(7-nitrobenz-2-oxa-1,3-diazol-4-yl)amino)dodecanoyl)sphingosine]: 97%.

The values above are taken from patent publication US7449553B2, “Antibody that binds ceramidase” (Takara Bio Inc., priority 1999, dated 2008).
